SMILES strings stand for the structures. Read-outs that look alike come from different tables or passages of the source.

One experiment deals with T1, A2A adenosine receptors (Rattus norvegicus, UniProt P30543).
T1 construct: from tissue
The experiment in a line: Displacement of specific [3H]CGS 21680 binding in rat striatal membranes. Particulars: for inhibition at 100 µM: read-out: rA2A % inhibition (percentage of specific binding displaced); for Ki: [3H]CGS 21680, rat striatal membranes, n = 3-6, read-out: rA2A Ki ± S.E.M.

In another experiment the target is T2, human A3 receptors (Homo sapiens, UniProt P0DMS8).
T2 construct: expressed in transfected cells
T2 sequence (P0DMS8 1-318): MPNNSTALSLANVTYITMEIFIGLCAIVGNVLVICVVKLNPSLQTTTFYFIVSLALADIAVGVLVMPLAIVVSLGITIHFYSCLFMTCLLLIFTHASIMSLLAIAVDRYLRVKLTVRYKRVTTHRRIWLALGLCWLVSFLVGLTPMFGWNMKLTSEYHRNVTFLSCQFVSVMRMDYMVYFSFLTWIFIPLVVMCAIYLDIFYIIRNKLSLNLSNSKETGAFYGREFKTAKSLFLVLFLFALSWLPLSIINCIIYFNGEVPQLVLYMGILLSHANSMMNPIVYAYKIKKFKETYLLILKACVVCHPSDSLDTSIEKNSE
The experiment can be described thus: Displacement of specific [125I]AB-MECA binding at human A3 receptors expressed in HEK cells, in membranes. Conditions: for rA1/hA3: ratio of affinities rat A1 vs human A3; for Ki: [125I]AB-MECA, HEK cell membranes, n = 3-4, read-out: hA3 Ki ± S.E.M.

A further experiment has as its target T3, A1 adenosine receptors (Rattus norvegicus, UniProt P25099).
T3 construct: from tissue
T3 sequence (P25099 1-326): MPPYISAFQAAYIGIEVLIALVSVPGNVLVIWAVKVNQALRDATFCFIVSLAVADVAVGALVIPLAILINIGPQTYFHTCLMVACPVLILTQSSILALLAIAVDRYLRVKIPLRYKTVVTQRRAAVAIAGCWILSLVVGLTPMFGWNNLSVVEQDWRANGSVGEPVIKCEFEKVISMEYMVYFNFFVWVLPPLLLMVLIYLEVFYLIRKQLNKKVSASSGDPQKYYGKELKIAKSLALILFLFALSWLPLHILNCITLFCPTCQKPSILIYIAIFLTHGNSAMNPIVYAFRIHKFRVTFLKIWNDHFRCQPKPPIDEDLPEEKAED
The experiment in a line: Displacement of specific [3H]R-PIA binding in rat brain membranes. Particulars: for inhibition at 100 µM: read-out: rA1 % inhibition (percentage of specific binding displaced); for Ki: [3H]R-PIA, rat brain membranes, n = 3-5, read-out: rA1 Ki ± S.E.M.

The target of the next experiment is T4, rat A3 receptors (Rattus norvegicus, UniProt P28647).
T4 construct: expressed in transfected cells
T4 sequence (P28647 1-320): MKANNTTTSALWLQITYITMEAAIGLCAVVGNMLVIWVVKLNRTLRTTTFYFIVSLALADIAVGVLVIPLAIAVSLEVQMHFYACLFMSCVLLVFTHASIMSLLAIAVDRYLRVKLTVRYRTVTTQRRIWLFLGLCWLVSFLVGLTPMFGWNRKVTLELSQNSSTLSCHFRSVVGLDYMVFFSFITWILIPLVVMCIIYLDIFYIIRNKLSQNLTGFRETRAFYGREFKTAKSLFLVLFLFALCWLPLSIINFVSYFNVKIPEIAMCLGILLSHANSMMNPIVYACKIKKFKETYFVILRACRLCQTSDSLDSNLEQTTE
The experiment can be described thus: Displacement of specific [125I]AB-MECA binding at rat A3 receptors stably expressed in CHO cells. Particulars: Table 4.

T1 sequence (P30543 whole entry): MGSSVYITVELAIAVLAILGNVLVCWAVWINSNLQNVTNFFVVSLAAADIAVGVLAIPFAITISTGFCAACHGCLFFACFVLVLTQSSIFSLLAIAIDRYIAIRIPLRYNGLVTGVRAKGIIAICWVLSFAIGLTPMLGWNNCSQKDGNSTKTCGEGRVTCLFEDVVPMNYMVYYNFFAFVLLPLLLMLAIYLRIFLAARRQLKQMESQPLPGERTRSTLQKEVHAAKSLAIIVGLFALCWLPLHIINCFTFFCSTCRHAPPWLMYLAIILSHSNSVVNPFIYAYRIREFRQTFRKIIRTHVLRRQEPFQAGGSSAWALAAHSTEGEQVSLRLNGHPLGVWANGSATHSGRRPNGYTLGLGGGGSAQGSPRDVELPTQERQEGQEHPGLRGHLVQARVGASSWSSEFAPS

Consider `CCCOC(=O)c1c(-c2ccc(F)cc2)nc(CC)c(C(=O)SCC)c1CCC` [Compound 27], for which, on A2A adenosine receptors (Table 2, at 10^−4 M), the “rA2A percentage of specific binding displaced” value is 50% (10^−4). Also, the rA1/hA3 result on human A3 receptors (Table 2) was “˜400”.

In general, inhibition refers to the relative decrease from the control value, in per cent. By Ki is commonly meant a measure of affinity in units of concentration, obtained from inhibition or displacement. Turning to `CCOC(=O)C1=C(C)NC(c2ccccc2)=C(C(=O)OCC)C1C=O` (racemic) [Compound 67, 3,5-Diethyl 2-methyl-6-phenyl-4-formyl-1,4(±)-dihydropyridine-3,5-dicarboxylate], the inhibition at 100 µM on A2A adenosine receptors (Table 3, at 10^−4 M) worked out at 32 ± 15%; at A1 adenosine receptors (Table 3, at 10^−4 M), 26 ± 6%. Besides, the Ki on human A3 receptors (Table 3) worked out at 15.6 ± 5.4 µM. Moreover, the rA1/hA3 at human A3 receptors (Table 3) is listed as more than 6.

In the case of `CCOC(=O)c1c(C)nc(-c2ccccc2)c(C(=O)OCC)c1CC` [Compound 35, 3,5-Diethyl 2-methyl-4-ethyl-6-phenylpyridine-3,5-dicarboxylate], the Ki at A2A adenosine receptors (Table 2, compounds 33-58) turned out to be 3.69 ± 1.25 µM; on A1 adenosine receptors (Table 2, compounds 33-58), 3.36 ± 0.6 µM; at human A3 receptors (Table 2, compounds 33-58), 0.176 ± 0.038 µM. In addition, the rA1/hA3 at human A3 receptors (Table 2) came to 19.

Turning to `CCOC(=O)c1c(C)nc(C2CCC2)c(C(=O)OCc2ccccc2)c1C#Cc1ccccc1` [Compound 44, 3-Ethyl 5-benzyl 2-methyl-4-phenylethynyl-6-cyclobutylpyridine-3,5-dicarboxylate], the inhibitory constant (Ki) on A2A adenosine receptors (Table 2, compounds 33-58) came to 27.6 ± 12 µM; at human A3 receptors (Table 2, compounds 33-58), 2.41 ± 0.59 µM. Further, the “rA1 displacement of specific binding (class d)” value at A1 adenosine receptors (Table 2, at 10^−4 M) is reported as “d (10^−4) (Displacement of <10% of specific binding at the indicated concentration (M).)”.

In the case of `CCOC(=O)C1=C(C)NC(C2CCCC2)=C(C(=O)OCc2ccccc2)C1C#Cc1ccccc1` (racemic) [Compound 72, 3-Ethyl 5-benzyl 2-methyl-4-phenylethynyl-6-cyclopentyl-1,4(±)-dihydropyridine-3,5-dicarboxylate], the Ki was 7.16 ± 1.56 µM on A2A adenosine receptors (Table 3), 17.1 ± 4.3 µM at A1 adenosine receptors (Table 3) and 0.0505 µM on human A3 receptors (Table 3). Moreover, the rA1/hA3 on human A3 receptors (Table 3) is 340.

For `CCOC(=O)c1c(CC)nc(-c2ccccc2)c(C(=O)OCC)c1C` [Compound 46, 3,5-Diethyl 2-ethyl-4-methyl-6-phenylpyridine-3,5-dicarboxylate], the inhibition constant (Ki) on A2A adenosine receptors (Table 2, compounds 33-58) stood at 13.4 ± 4.2 µM; on A1 adenosine receptors (Table 2, compounds 33-58) it was 10.3 ± 1.7 µM; at human A3 receptors (Table 2, compounds 33-58) it was 0.121 ± 0.008 µM. The rA1/hA3 at human A3 receptors (Table 2) was determined as 85.

Consider `CCOC(=O)C1=C(C)NC(c2ccccc2)=C(C(=O)OCC)C1CC` (racemic) [Compound 61, 3,5-Diethyl 2-methyl-4-ethyl-6-phenyl-1,4-(±)-dihydropyridine-3,5-dicarboxylate], for which, on A2A adenosine receptors (Table 3), the Ki was 21.8 ± 7.8 µM.

`CCCc1c(C(=O)SCC)c(CC)nc(-c2ccccc2)c1C(=O)OCCCF` [Compound 23]: the rA1/hA3 at human A3 receptors (Table 2) turned out to be 630.

For the compound `CCOC(=O)c1c(C)nc(-c2ccccc2)c(C(=O)OCC)c1C=Cc1ccccc1` [Compound 42], the inhibition constant (Ki) at A2A adenosine receptors (Table 2, compounds 33-58) was 2.4 ± 0.22 µM.

Regarding `CCCc1c(C(=O)SCC)c(CC)nc(-c2ccccc2)c1C(=O)OCC(F)(F)C(F)(F)F` [Compound 24], at human A3 receptors (Table 2), the rA1/hA3 came out at 13.

Turning to `CCCOC(=O)C1=C(C)NC(c2ccccc2)=C(C(=O)OCC)C1C` (racemic) [Compound 60, 3-Propyl 5-ethyl 2,4-dimethyl-6-phenyl-1,4-(±)-dihydropyridine-3,5-dicarboxylate], the inhibition constant (Ki) at A2A adenosine receptors (Table 3) turned out to be 28.9 ± 4.8 µM; on A1 adenosine receptors (Table 3) it was 1.74 ± 3.1 µM.

As to `CCCOC(=O)c1c(-c2ccccc2)nc(CC)c(C(=O)SCCF)c1CCC` [Compound 15], the rA1/hA3 at human A3 receptors (Table 2) came out at 150.

With `CCCOC(=O)c1c(-c2cccc(F)c2)nc(CC)c(C(=O)SCC)c1CCC` [Compound 26], the rA1/hA3 at human A3 receptors (Table 2) came out at 280.

Consider `CCOC(=O)C1=C(C)NC(C2CCCCC2)=C(C(=O)OCc2ccccc2)C1C#Cc1ccccc1` (racemic) [Compound 73, 3-Ethyl 5-benzyl 2-methyl-4-phenylethynyl-6-cyclohexyl-1,4-(±)-dihydropyridine-3,5-dicarboxylate], for which the inhibition at 100 µM at A2A adenosine receptors (Table 3, at 10^−4 M) worked out at 20%; at A1 adenosine receptors (Table 3, at 10^−4 M), 22 ± 2%.

In the case of `CCOC(=O)c1c(C)nc(-c2ccccc2)c(C(=O)OCC)c1C=O` [Compound 41, 3,5-Diethyl 2-methyl-4-formyl-6-phenylpyridine-3,5-dicarboxylate], the Ki is 2.56 ± 0.13 µM at A2A adenosine receptors (Table 2, compounds 33-58) and 9.56 ± 4.09 µM on A1 adenosine receptors (Table 2, compounds 33-58).

Turning to `CCCOC(=O)c1c(-c2ccccc2)nc(CC)c(C(=O)SCCO)c1CCC` [Compound 12], the rA1/hA3 on human A3 receptors (Table 2) came out at 210.

For the compound `CCCOC(=O)c1c(-c2ccccc2)nc(CC)c(C(=O)SCC)c1CC` [Compound 6], the “rA2A displacement of specific binding (class d)” value (“rA2A displacement” below) at A2A adenosine receptors (Table 2, at 10^−5 M) is on record as “d (10^−5) (Displacement of <10% of specific binding at the indicated concentration (M).)”. Moreover, the rA1/hA3 at human A3 receptors (Table 2) is on record as 8.20.

On to `CCOC(=O)C1=C(CC)NC(c2ccccc2)=C(C(=O)OCC)C1C` (racemic) [Compound 74, 3,5-Diethyl 2-ethyl-6-phenyl-4-methyl-1,4-(±)-dihydropyridine-3,5-dicarboxylate], for which the “rA2A displacement” value on A2A adenosine receptors (Table 3, at 10^−4 M) was “d (10^−4) (Displacement of < 10% of specific binding at the indicated concentration (M).)”. For the same compound, at A1 adenosine receptors (Table 3, at 10^−4 M), the inhibition at 100 µM amounted to 20 ± 4%.

Turning to `CCOC(=O)C1=C(C)NC(C2CCC2)=C(C(=O)OCc2ccccc2)C1C#Cc1ccccc1` (racemic) [Compound 71, 3-Ethyl 5-benzyl 2-methyl-4-phenylethynyl-6-cyclobutyl-1,4-(±)-dihydropyridine-3,5-dicarboxylate], on A2A adenosine receptors (Table 3, at 10^−4 M), the “rA2A displacement” value is “d (10^−4) (Displacement of < 10% of specific binding at the indicated concentration (M).)”. In addition, the inhibition at 100 µM at A1 adenosine receptors (Table 3, at 10^−4 M) worked out at 36 ± 8%.

On to `CCOC(=O)c1c(-c2ccccc2)nc(CC)c2c1CCCNC2=O` [Compound 30], for which, on A2A adenosine receptors (Table 2, at 10^−4 M), the “rA2A displacement” value is on record as “d (10^−4) (Displacement of <10% of specific binding at the indicated concentration (M).)”.

`CCCCSC(=O)c1c(CC)nc(-c2cccc(Cl)c2)c(C(=O)OCCC)c1CC` [Compound 7]: the “rA2A displacement” value at A2A adenosine receptors (Table 2, at 10^−4 M) was “d (10^−4) (Displacement of <10% of specific binding at the indicated concentration (M).)”. For the same compound, the rA1/hA3 at human A3 receptors (Table 2) was determined as 7400.

With `CCCOC(=O)c1c(-c2ccccc2)nc(CC)c(C(=O)SCC(F)(F)F)c1CCC` [Compound 16], the rA1/hA3 at human A3 receptors (Table 2) was 460.

Regarding `CCCOC(=O)c1c(-c2ccccc2)nc(CC)c(C(=O)SCC)c1CC` [Compound 49a, 5-Propyl 2,4-diethyl-3-(ethylsulfanylcarbonyl)-6-phenylpyridine-5-carboxylate], the Ki stood at 7.77 ± 1.83 µM at A1 adenosine receptors (Table 2, compounds 33-58); 0.183 ± 0.033 µM at rat A3 receptors ([125I]AB-MECA, CHO cells, n = 3-5, read-out: rA3 Ki); 0.00829 µM on human A3 receptors (Table 2, compounds 33-58). Also, the rA3/hA3 at rat A3 receptors (ratio of affinities at rat vs. human A3 receptors) worked out at 22. Also, the rA1/rA3 at rat A3 receptors (ratio of affinities rat A1 vs rat A3) is recorded as 42. Further, the rA1/hA3 at human A3 receptors (Table 2) was determined as 940.

On to `CCOC(=O)c1c(C)nc(-c2ccccc2)c(C(=O)OCC)c1C` [Compound 33], for which the rA1/hA3 at human A3 receptors (Table 2) is 1.7.

Consider `CCCOC(=O)c1c(-c2ccccc2F)nc(CC)c(C(=O)SCC)c1CCC` [Compound 25], for which the rA1/hA3 on human A3 receptors (Table 2) is listed as 590.

`CCCOC(=O)c1c(-c2ccccc2)nc(CC)c2c1CCOC2=O` [Compound 29]: the “hA3 displacement of specific binding (class d)” value on human A3 receptors (Table 2, at 10^−4 M) was “d (10^−4) (Displacement of <10% of specific binding at the indicated concentration (M).)”.

In the case of `CCOC(=O)c1c(-c2ccccc2)nc(CC)c(C(=O)SCC)c1CCCN1C(=O)c2ccccc2C1=O` [Compound 5], on A2A adenosine receptors (Table 2, at 10^−4 M), the “rA2A displacement” value is given as “d (10^−4) (Displacement of <10% of specific binding at the indicated concentration (M).)”. For the same compound, the “hA3 percentage of specific binding displaced” value at human A3 receptors (Table 2, at 10^−6 M) was 28% (10^−6).

On to `CCOC(=O)C1=C(C)NC(C2CC2)=C(C(=O)OCc2ccccc2)C1C#Cc1ccccc1` (racemic) [Compound 70, 3-Ethyl 5-benzyl 2-methyl-4-phenylethynyl-6-cyclopropyl-1,4-(±)-dihydropyridine-3,5-dicarboxylate], for which the “rA2A displacement” value on A2A adenosine receptors (Table 3, at 10^−4 M) is “d (10^−4) (Displacement of < 10% of specific binding at the indicated concentration (M).)”. Moreover, the inhibition at 100 µM at A1 adenosine receptors (Table 3, at 10^−4 M) was 22 ± 1%.

(Values after patent US6376521B1, “A3 adenosine receptor antagonists” (The United States of America as represented by the …, priority 1998, dated 2002).)
